Counter-ions that a name gives are not always drawn.
target: T1, CCK2 receptor (Homo sapiens, UniProt P32239); assay: CCK2 binding assay ([125I]-BH-CCK-8S displacement, HEKZFP membranes); settings: membranes of doxycycline-induced HEKZFP cells; 20 pM [125I]-BH-CCK-8S; 60 min at 21±3° C.
T1 construct: analyzed for ZFP expression as well as CCK2R induction upon addition of doxycycline to the culture medium; endogenous in cells
T1 sequence (P32239 1-447): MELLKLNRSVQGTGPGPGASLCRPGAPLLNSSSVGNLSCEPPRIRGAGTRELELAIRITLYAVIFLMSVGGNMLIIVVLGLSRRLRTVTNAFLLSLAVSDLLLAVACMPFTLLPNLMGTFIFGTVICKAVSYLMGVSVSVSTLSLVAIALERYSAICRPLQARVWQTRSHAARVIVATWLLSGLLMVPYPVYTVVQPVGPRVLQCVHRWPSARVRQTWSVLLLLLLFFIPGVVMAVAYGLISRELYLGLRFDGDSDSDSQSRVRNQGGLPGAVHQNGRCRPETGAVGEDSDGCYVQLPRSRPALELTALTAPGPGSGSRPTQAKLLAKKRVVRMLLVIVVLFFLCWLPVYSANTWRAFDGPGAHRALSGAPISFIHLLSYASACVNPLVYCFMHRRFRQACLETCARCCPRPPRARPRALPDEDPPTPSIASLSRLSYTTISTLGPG
Protocol: 2. CCK2 Assay Development and Data Generation
Zinc Finger Proteins (ZFP) specific for the CCK2R gene were identified by Sangamo Biosciences. The ZFP domain was fused with the herpes simplex virus VP16 activation domain, and the fusion protein was subsequently cloned into the pcDNA3 mammalian expression vector (Invitrogen, San Diego, Calif.). […] After 2 weeks of selection in culture medium containing […] Zeocin (Invitrogen), sixty drug-resistant stable clones were isolated and analyzed for ZFP expression as well as CCK2R induction upon addition of doxycycline to the culture medium.
HEKZFP cells were grown in DMEM supplemented with L-glutamine (2 mM), penicillin (50 units/mL) and streptomycin (50 μg/mL) and 10% FBS (v/v).
Membranes were prepared from the HEKZFP cells after induction. […] The thawed pellets were homogenized using a Polytron PT-10 (7×1 s). The homogenates were centrifuged for 5 min at 1500 rpm (600×g), and the resulting pellets were discarded. The supernatants were re-centrifuged in order to collect the receptor-membrane pellets (25 min 15,000 rpm; 39,800×g), which were re-suspended in buffer A.
The assay preparation was incubated for 1 h at 21±3° C., and then the assay was terminated by rapid filtration of the preparation under reduced pressure. The loaded filters were washed three times using undiluted PBS (100 μL), and then 100 μL of scintillation fluid was added to the filter plate. Bound radioactivity was determined using a Topcount (Packard BioScience, Meriden, Conn.) with a count time of 1 min. […] To validate the radioligand concentration and incubation time for the assay, saturation and kinetic binding studies were also conducted (see M. F. Morton, The Pharmacological Characterization of Cholecystokinin Receptors in the Human Gastrointestinal Tract. PhD Thesis, University of London, 2000). […] The assay was then terminated according to the procedure outlined above.
(§1) 3. Data Analysis for CCK1 and CCK2 Binding Assays
The pKi values were determined using the equation of Y.-C.
(§2) [formula] To circumvent problems associated with computer-assisted data analysis of compounds with low affinity, the data obtained in the current study were weighted according to a method described by Morton. In brief, 100% and 0% specific binding were defined independently using total binding and binding obtained in the presence of a high concentration of the reference antagonist, 2-NAP.

| CCK2 pKi | Structure (SMILES) |
| --- | --- |
| 8.0 | O=C(N[C@@H](Cc1ccc(F)c(Br)c1)C(=O)O)c1cc(Cl)c(Cl)cc1NS(=O)(=O)c1cccc2nsnc12 [Example 157, (S)-2-[2-(Benzo[1,2,5]thiadiazole-4-sulfonylamino)-4,5-dichloro-benzoylamino]-3-(3-bromo-4-fluoro-phenyl)-propionic acid] |
| 5.9 | O=C(N[C@H](C(=O)O)C(c1ccc(Cl)cc1)c1ccc(Cl)cc1)c1ccc(Cl)cc1NS(=O)(=O)c1cccc2nsnc12 [Example 106, (S)-2-[2-(Benzo[1,2,5]thiadiazole-4-sulfonylamino)-4-chloro-benzoylamino]-3,3-bis-(4-chloro-phenyl)-propionic acid] |

same assay, conditions: membranes of doxycycline-induced HEKZFP cells; 20 pM [125I]-BH-CCK-8S; 60 min at 21±3° C.; read-out: CCK2 pKi (converted)

| Ki [nM] | Structure (SMILES) |
| --- | --- |
| 31.6 | O=C(N[C@@H](Cc1cccc([N+](=O)[O-])c1)C(=O)O)c1ccc(Cl)cc1NS(=O)(=O)c1cccc2nccnc12 [Example 84, (S)-2-[4-Chloro-2-(quinoxaline-5-sulfonylamino)-benzoylamino]-3-(3-nitro-phenyl)-propionic acid] |
| 31.6 | O=C(N[C@@H](Cc1ccccc1)C(=O)O)c1ccc(I)cc1NS(=O)(=O)c1cccc2nccnc12 [Example 27, 2-[4-Iodo-2-(quinoxaline-5-sulfonylamino)-benzoylamino]-3-phenyl-propionic acid] |
| 158 | O=C(N[C@@H](Cc1ccsc1)C(=O)O)c1ccc(Cl)cc1NS(=O)(=O)c1cccc2nccnc12 [Example 87, (S)-2-[4-Chloro-2-(quinoxaline-5-sulfonylamino)-benzoylamino]-3-thiophen-3-yl-propionic acid] |
| 31.6 | O=C(N[C@@H](Cc1ccsc1)C(=O)O)c1ccc(Cl)cc1NS(=O)(=O)c1cccc2nsnc12 [Example 77, (S)-2-[2-(Benzo[1,2,5]thiadiazole-4-sulfonylamino)-4-chloro-benzoylamino]-3-thiophen-3-yl-propionic acid] |
| 79.4 | O=C(N[C@@H](Cc1ccccc1)C(=O)O)c1ccc(I)cc1NS(=O)(=O)c1cccc2scnc12 [Example 28, 2-[2-(Benzothiazole-4-sulfonylamino)-4-iodo-benzoylamino]-3-phenyl-propionic acid] |
| 31.6 | N#Cc1cccc(C[C@H](NC(=O)c2ccc(Cl)cc2NS(=O)(=O)c2cccc3nccnc23)C(=O)O)c1 [Example 63, (S)-2-[4-Chloro-2-(quinoxaline-5-sulfonylamino)-benzoylamino]-3-(3-cyano-phenyl)-propionic acid] |
| 794 | CN(CCc1ccccn1)C(=O)c1ccc(Cl)cc1NS(=O)(=O)c1cccc2nsnc12 [Example 51, 2-(Benzo[1,2,5]thiadiazole-4-sulfonylamino)-4-chloro-N-methyl-N-(2-pyridin-2-yl-ethyl)-benzamide hydrochloride] |
| 31.6 | N#Cc1ccc(C[C@H](NC(=O)c2ccc(Cl)cc2NS(=O)(=O)c2cccc3nccnc23)C(=O)O)cc1 [Example 86, (S)-2-[4-Chloro-2-(quinoxaline-5-sulfonylamino)-benzoylamino]-3-(4-cyano-phenyl)-propionic acid] |
| 63.1 | O=C(N[C@@H](Cc1ccc(F)c(F)c1)C(=O)O)c1ccc(Cl)cc1NS(=O)(=O)c1cccc2nccnc12 [Example 85, (S)-2-[4-Chloro-2-(quinoxaline-5-sulfonylamino)-benzoylamino]-3-(3,4-difluoro-phenyl)-propionic acid] |
| 39.8 | O=C(N[C@@H](Cc1ccccc1)C(=O)O)c1ccc(Br)cc1NS(=O)(=O)c1cccc2nsnc12 [Example 25, 2-[2-(Benzo[1,2,5]thiadiazole-4-sulfonylamino)-4-bromo-benzoylamino]-3-phenyl-propionic acid] |

target: T2, CCK-1 receptor (Homo sapiens, UniProt P32238); assay: CCK1 binding assay ([125I]-BH-CCK-8S displacement, CHO-K1 membranes); settings: membranes of CHO-K1 cells stably transfected with the CCK-1 receptor; 20 pM [125I]-BH-CCK-8S; 0.3 μM PD-134,308 present; 60 min at 21±3° C.
T2 construct: expressed in transfected cells; host or cells: CHO-K1
T2 sequence (P32238 1-428): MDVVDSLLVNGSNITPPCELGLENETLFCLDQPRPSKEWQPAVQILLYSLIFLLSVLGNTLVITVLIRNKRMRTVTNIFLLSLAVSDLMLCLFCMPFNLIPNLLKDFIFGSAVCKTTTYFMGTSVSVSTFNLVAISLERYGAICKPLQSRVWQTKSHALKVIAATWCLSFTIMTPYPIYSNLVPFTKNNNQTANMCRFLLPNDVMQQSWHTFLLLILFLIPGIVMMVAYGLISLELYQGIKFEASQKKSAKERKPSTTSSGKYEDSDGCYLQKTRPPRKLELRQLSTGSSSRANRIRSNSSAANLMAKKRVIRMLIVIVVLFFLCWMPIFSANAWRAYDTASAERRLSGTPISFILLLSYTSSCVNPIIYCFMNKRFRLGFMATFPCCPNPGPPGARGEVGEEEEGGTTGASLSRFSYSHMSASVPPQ
Protocol: 1. CCK1 Assay Development and Data Generation
CHO-K1 cells that had undergone stable transfection with the CCK-1 receptor were grown in DMEM supplemented with L-glutamine (2 mM), penicillin (50 units/mL) and streptomycin (50 μg/mL). Cells were cultured under continuous G418 selection (2 mM) and were harvested using a rubber cell scraper. CHO-K1 cells were sub-cultured a maximum of ten times before being reseeded from the original stocks.
Membranes were prepared from the stably transfected CHO-K1 cells. Frozen cell pellets (−40° C.) were thawed in 14 mL of buffer A (10 mM HEPES, 130 mM NaCl, 4.7 mM KCl, 5 mM MgCl, 1 mM EGTA and 15.4 mg/100 mL bacitracin at pH 7.2), adapted from Harper et al. (Br. J. Pharmacol. 1996, 118:1717-1726). The thawed pellets were homogenized using a Polytron PT-10 (7×1 s). The homogenates were centrifuged for 5 min at 1500 rpm (600×g), and the resulting pellets were discarded. The supernatants were re-centrifuged in order to collect the receptor-membrane pellets (25 min 15,000 rpm; 39,800×g), which were re-suspended in buffer A.
All assays were conducted in 96-well plates (GF/B millipore filter plates) using buffer A, with 0.3 μM PD-134,308, for the dilutions. The CCK-2 receptor ligand was included to eliminate the contribution of this receptor subtype to the binding. For the optimal cell number determination experiments 20 pM [^125I]-BH-CCK-8S (50 μL […] solution) was incubated with a range of cell concentrations ([…] to 12.5×10^5 cells/well) in a total volume of 150 μL. Total binding of [^125I]-BH-CCK-8S was determined in the presence of 15 μL of buffer A. Non-specific binding of [^125I]-BH-CCK-8S was determined in the presence of 15 μL of 100 μM 2-naphthalenesulphonyl L-aspartyl-(2-phenethyl)amide (2-NAP: see R. A. Hull et al. Br. J. Pharmacol. 1993, 108:734-740), a CCK-1 receptor selective antagonist that is structurally unrelated to the radioligand [^125I]-BH-CCK-8S. The assay preparation was incubated for 1 h at 21±3° C., and then the assay was terminated upon rapid filtration of the preparation under reduced pressure. The loaded filters were washed three times using undiluted PBS ([…]), and then the residues were transferred to 5 mL scintillation tubes. Bound radioactivity was determined using a gamma counter (count time=1 min). […] To validate the radioligand concentration and incubation time for the assay, saturation and kinetic binding studies were also conducted (see M. F. Morton, The Pharmacological Characterization of Cholecystokinin Receptors in the Human Gastrointestinal Tract. PhD Thesis, University of London, 2000). […] The assay was then terminated according to the procedure outlined above.
as §1
The pKi values were determined using the equation of Y.-C. Cheng and W. H. Prusoff (Biochem. Pharmacol., 1973, 22(23):3099-3108):
as §2

| CCK1 pKi | Structure (SMILES) |
| --- | --- |
| 6.6 | O=C(N[C@@H](Cc1ccc(Cl)c(Cl)c1)C(=O)O)c1ccc(Cl)cc1NS(=O)(=O)c1cccc2nsnc12 [Example 117, (S)-2-[2-(Benzo[1,2,5]thiadiazole-4-sulfonylamino)-4-chloro-benzoylamino]-3-(3,4-dichloro-phenyl)-propionic acid] |
| 7.1 | O=C(N[C@H](Cc1ccc(Cl)c(Cl)c1)C(=O)O)c1ccc(Cl)cc1NS(=O)(=O)c1cccc2nsnc12 [Example 118, (R)-2-[2-(Benzo[1,2,5]thiadiazole-4-sulfonylamino)-4-chloro-benzoylamino]-3-(3,4-dichloro-phenyl)-propionic acid] |

same assay, conditions: membranes of CHO-K1 cells stably transfected with the CCK-1 receptor; 20 pM [125I]-BH-CCK-8S; 0.3 μM PD-134,308 present; 60 min at 21±3° C.; read-out: CCK1 pKi (converted)

| Ki [nM] | Structure (SMILES) |
| --- | --- |
| 158 | C[C@@H](NC(=O)c1ccc(Cl)cc1NS(=O)(=O)c1cccc2nsnc12)C(O)(c1ccccc1)c1ccccc1 [Example 73, (R)-2-(Benzo[1,2,5]thiadiazole-4-sulfonylamino)-4-chloro-N-(2-hydroxy-1-methyl-2,2-diphenyl-ethyl)-benzamide] |

Reference: patent US7855292B2, “Sulfonamide compounds” (Janssen Pharmaceutica NV, priority 2004, dated 2010)
